# Measured values published in patent US11332485B2, “Penicillin-binding protein inhibitors” (priority 2017, dated 2022).
# pEC50: −log10 of the molar value. Like-named read-outs stand apart in the source and are kept apart here.
# Assays:
# [1] = biological target: T1, PBP1b from Escherichia coli (Escherichia coli, UniProt P02919); experiment: Radioligand competition binding assay with 14C-labeled boronic acid probe (Example 96)
# T1 construct: made in house
# Outline: (§1)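 Purified PBP (0.1 μM) in 20 mM Tris pH 7.5, 500 mM NaCl, 0.1% Triton X-100 preincubated 60 min with inhibitor, then 60 min with 20 μM 14C-boronic acid probe. Bound probe recovered by spin desalting and counted by scintillation; EC50 is the concentration halving probe binding.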
# [2] = biological target: T2, PBP1a from Escherichia coli (Escherichia coli, UniProt P02918); experiment: as above
# T2 construct: made in house
# T2 sequence (P02918 whole entry): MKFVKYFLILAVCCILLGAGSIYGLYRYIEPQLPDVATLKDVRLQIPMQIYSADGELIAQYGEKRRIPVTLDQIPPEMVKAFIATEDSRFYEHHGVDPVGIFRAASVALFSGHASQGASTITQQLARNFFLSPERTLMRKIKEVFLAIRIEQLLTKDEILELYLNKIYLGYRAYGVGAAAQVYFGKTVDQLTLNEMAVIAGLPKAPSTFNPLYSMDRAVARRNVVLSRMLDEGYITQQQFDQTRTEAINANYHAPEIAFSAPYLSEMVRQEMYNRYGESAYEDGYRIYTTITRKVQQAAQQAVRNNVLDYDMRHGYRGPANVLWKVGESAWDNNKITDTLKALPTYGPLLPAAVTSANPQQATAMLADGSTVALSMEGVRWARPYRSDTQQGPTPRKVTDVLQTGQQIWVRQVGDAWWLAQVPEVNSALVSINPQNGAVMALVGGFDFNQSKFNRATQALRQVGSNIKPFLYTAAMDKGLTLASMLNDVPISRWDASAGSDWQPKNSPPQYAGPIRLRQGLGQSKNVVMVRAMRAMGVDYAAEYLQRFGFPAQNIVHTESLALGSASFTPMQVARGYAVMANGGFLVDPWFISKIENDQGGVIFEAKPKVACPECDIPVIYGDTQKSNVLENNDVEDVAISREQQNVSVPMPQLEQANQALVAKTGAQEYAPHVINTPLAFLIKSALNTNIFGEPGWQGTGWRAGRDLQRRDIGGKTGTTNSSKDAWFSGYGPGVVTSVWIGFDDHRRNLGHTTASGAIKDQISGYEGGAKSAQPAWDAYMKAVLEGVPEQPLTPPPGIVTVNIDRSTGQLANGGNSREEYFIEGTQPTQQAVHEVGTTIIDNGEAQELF
# Outline: as §1
# [3] = biological target: T3, PBP3 from Escherichia coli (Escherichia coli, UniProt P0AD68); experiment: Competition binding assay using Bodipy-FL boronic acid probe (Example 95); details: PBP3 3 μM, read-out: E. coli K12 PBP3 Potency
# T3 construct: made in house
# T3 sequence (P0AD68 1-577): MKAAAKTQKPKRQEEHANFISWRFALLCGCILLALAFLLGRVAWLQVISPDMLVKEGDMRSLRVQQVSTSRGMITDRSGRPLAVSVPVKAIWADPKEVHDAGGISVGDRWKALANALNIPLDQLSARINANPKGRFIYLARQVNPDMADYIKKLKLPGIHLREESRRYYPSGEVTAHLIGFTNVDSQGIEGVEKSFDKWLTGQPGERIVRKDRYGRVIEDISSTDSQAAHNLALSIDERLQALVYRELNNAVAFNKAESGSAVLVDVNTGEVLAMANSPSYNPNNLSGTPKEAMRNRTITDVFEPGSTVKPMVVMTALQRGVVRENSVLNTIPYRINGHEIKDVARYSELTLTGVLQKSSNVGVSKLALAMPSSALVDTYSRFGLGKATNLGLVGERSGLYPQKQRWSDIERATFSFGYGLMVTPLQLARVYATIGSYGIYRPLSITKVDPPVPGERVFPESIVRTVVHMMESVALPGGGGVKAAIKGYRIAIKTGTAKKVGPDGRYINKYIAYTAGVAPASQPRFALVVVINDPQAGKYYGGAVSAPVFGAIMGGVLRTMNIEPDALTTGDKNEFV
# Method: PBP3 from Escherichia coli was cloned and purified as described previously (King, D. T, et al., ACS Infectious Diseases 2015, 1, 175-184). To establish assay conditions for competition binding, an enzyme titration/saturation binding experiment was performed. […] FP was measured immediately upon addition of PBP3 (Ex, Em), using a Cytation3 (BioTek) microplate reader and measured continuously for 60 minutes. […] The competition binding assay was validated using the beta-lactam ampicillin, with Bocillin-FL at a final concentration of 0.1 μM, PBP3 at a final concentration of 1.5 μM and concentrations of ampicillin from 0-1000 μM. […] Binding assays for boronic acid PBP inhibitors were performed in an identical fashion. Representative results are shown in Table 3, where A represents a potency of >500 μM, B represents a potency between 30 μM and 500 μM inclusive, and C represents a potency of <30 μM. NT=Not Tested.
# The method described in Example II was adapted to use a Bodipy-labeled boronic acid PBP inhibitor (Example 13 or Example 95) to assess PBP3 potency of boronic acid PBP inhibitors. The method is identical to that described in Example II for the Bocillin-FL competition binding assay, with the following exceptions: PBP3 from Escherichia coli is used at a final concentration of 3 μM. […]
# [4] = biological target: T3, PBP3 from Escherichia coli; experiment: Fluorescence polarization competition binding assay with Bocillin-FL
# Outline: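 Fluorescence polarization competition assay with Bocillin-FL at 0.1 μM final and purified E. coli PBP3 at 1.5 μM final in 50 mM Hepes pH 8.0, 300 mM NaCl, 5% glycerol. Inhibitor preincubated with PBP3 for 30 min before probe addition; FP then read continuously for 60 min. Potency reported in binned categories.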
# [5] = PBP1a/PBP1b 0.1 μM, 96 at 20 μM, assay validation, read-out: EC50 (concentration of inhibitor required to reduce binding of 96 by 50%)
# T1 sequence (P02919 whole entry): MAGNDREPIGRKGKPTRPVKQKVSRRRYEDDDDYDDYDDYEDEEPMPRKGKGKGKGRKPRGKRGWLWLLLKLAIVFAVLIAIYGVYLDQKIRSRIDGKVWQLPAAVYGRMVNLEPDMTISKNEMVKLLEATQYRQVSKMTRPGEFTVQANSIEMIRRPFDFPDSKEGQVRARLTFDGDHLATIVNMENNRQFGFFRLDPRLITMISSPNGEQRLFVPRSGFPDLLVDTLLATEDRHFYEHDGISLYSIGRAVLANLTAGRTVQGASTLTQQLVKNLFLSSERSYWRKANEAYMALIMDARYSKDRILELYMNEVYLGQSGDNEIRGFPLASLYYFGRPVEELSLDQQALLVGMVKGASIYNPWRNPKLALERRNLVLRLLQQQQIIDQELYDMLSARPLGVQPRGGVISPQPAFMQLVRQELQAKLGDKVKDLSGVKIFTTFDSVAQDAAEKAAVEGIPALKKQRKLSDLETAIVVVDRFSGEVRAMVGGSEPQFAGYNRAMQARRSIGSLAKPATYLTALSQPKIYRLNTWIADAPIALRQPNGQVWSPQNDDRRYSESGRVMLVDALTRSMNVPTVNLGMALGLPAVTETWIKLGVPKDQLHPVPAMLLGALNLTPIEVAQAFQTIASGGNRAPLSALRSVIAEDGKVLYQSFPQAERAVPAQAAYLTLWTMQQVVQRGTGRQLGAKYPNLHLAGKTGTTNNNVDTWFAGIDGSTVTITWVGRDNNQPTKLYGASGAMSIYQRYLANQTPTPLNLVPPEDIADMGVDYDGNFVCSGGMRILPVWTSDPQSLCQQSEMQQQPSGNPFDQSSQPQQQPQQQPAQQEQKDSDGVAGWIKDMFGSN
smiles,measurement,setting,value
"CC1(C)S[C@@H]2[C@H](NC(=O)[C@H](N)c3ccccc3)C(=O)N2[C@H]1C(=O)O [ampicillin, reference compound]",pEC50,"[1]; 14C-labeled probe 96 at 20 μM, PBP 0.1 μM, read-out: E. coli K12 PBP1b EC50",> 5.00
same,pEC50,[1]; [5],> 6.30
same,pEC50,"[2]; 14C-labeled probe 96 at 20 μM, PBP 0.1 μM, read-out: E. coli K12 PBP1a EC50",> 5.00
same,pEC50,[2]; [5],> 6.30
same,pEC50,[3],> 5.00
same,pEC50,[4],5.85
